Reference: patent publication US20260042769A1, “TRIARYL AGONISTS OF ALPHA-2 ADRENERGIC RECEPTORS” (ALCEPTOR THERAPEUTICS, INC., priority 2023, published 2026)

Biological target: T1, human ADRA2B receptor (Homo sapiens, UniProt P18089)
T1 construct: expressed in transfected cells
T1 sequence (P18089 1-450): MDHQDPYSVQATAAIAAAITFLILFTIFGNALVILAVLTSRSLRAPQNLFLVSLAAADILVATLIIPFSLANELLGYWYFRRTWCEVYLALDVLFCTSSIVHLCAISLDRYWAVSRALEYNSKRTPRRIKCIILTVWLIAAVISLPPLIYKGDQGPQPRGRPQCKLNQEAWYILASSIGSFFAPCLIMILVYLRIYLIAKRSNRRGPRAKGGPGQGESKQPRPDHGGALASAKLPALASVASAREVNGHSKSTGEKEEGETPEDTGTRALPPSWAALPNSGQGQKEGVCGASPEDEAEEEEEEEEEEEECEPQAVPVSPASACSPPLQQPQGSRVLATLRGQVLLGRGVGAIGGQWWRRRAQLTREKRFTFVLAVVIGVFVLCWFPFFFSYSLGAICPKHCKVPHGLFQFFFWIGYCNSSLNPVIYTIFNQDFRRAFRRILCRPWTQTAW
Assay: GTPγS agonist assay, ADRA2B receptor
Format: biochemical
Details: read-out: GTPase - Human Alpha2B EC50
Method in brief: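 CHO-K1 membranes stably expressing human ADRA2B (5 μg protein) in 20 mM HEPES, 10 mM MgCl2, 200 mM NaCl with GDP, preincubated 10 min at room temperature with compound. Binding reaction 1 h at 37° C; bound label collected on GF/C filters, washed, read by scintillation counting.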

EC50 [nM] | SMILES
50 to 500 | Clc1cccc(C(Cc2cccnn2)c2c[nH]cn2)c1Cl (stereo not drawn) [Compound 170, 3-[2-(2,3-dichlorophenyl)-2-(4-imidazolyl)ethyl] pyridazine]
10 to 50 | Cc1cccc(C(Cc2ccc(N3CCCC3)nc2)c2c[nH]cn2)c1C (stereo not drawn) [Compound 309, 4-{2-[6-(1-pyrrolidinyl)-3-pyridyl]-1-(2,3-xylyl)ethyl}imidazole]
> 500 | Cc1nccc(CC(c2c[nH]cn2)c2cccc3ncoc23)n1 (stereo not drawn) [Compound 338, 7-[1-(4-imidazolyl)-2-(2-methyl-4-pyrimidinyl)ethyl]-1,3-benzoxazole]
10 to 50 | Cc1cccc(C(Cc2cnn(C(C)C)c2)c2c[nH]cn2)c1C (stereo not drawn) [Compound 277, 4-[2-(4-imidazolyl)-2-(2,3-xylyl)ethyl]-1-isopropylpyrazole]
> 500 | FC(F)(F)c1ccc(C(Cc2cccnn2)c2c[nH]cn2)c(Cl)c1 (stereo not drawn) [Compound 201, 3-{2-[2-chloro-4-(trifluoromethyl)phenyl]-2-(4-imidazolyl)ethyl} pyridazine]
10 to 50 | COc1ncc(CC(c2c[nH]cn2)c2cccc3c2OCC3)c(OC)n1 (stereo not drawn) [Compound 312, 5-[2-(2,3-dihydro-1-benzofuran-7-yl)-2-(4-imidazolyl)ethyl]-2,4-dimethoxypyrimidine]
> 500 | c1cc2c(c([C@@H](Cc3cnn(C4CC4)c3)c3c[nH]cn3)c1)OCC2 [Compound 289]
> 500 | CCOc1ccc(C(Cc2cccnn2)c2c[nH]cn2)cc1C(F)(F)F (stereo not drawn) [Compound 226, 3-(2-[4-ethoxy-3-(trifluoromethyl)phenyl]-2-(4-imidazolyl)ethyl] pyridazine]
> 500 | Cc1cccc([C@@H](Cc2cccnn2)c2c[nH]cn2)c1Cl [Compound 214, 3-[(R)-2-(2-chloro-3-tolyl)-2-(4-imidazolyl)ethyl] pyridazine]
> 500 | FC(F)(F)Oc1ccc(C(Cc2cccnn2)c2c[nH]cn2)cc1 (stereo not drawn) [Compound 220, 3-[2-(4-imidazolyl)-2-(p-trifluoromethoxyphenyl)ethyl]pyridazine]

The next lines start with the molecule.

SMILES | EC50 [nM]
Cc1csc(CC(c2c[nH]cn2)c2cccc(C)c2C)n1 (stereo not drawn) [Compound 132, 2-[2-(4-imidazolyl)-2-(2,3-xylyl)ethyl]-4-methyl-1,3-thiazole] | < 10
Cc1cccc([C@H](Cc2ccccn2)c2cnc[nH]2)c1Cl [Compound 47, 2-[(2S)-2-(2-chloro-3-methylphenyl)-2-(1H-imidazol-4-yl)ethyl] pyridine] | > 500
Cc1cccc([C@@H](Cc2cccnc2)c2cnc[nH]2)c1Cl [Compound 61, 3-[(2R)-2-(2-chloro-3-methylphenyl)-2-(1H-imidazol-4-yl)ethyl]pyridine] | 50 to 500
c1ccc(C[C@@H](c2cnc[nH]2)c2cccc3c2CCO3)nc1 [Compound 42, 2-[(2R)-2-(2,3-dihydro-1-benzofuran-4-yl)-2-(1H-imidazol-4-yl)ethyl] pyridine] | 50 to 500
COc1cccc(C[C@H](c2cnc[nH]2)c2cccc(OC)c2C)n1 [Compound 26, 2-[(2S)-2-(1H-imidazol-4-yl)-2-(3-methoxy-2-methylphenyl)ethyl]-6-methoxypyridine] | 50 to 500
COc1ccccc1[C@@H](Cc1ccccn1)c1cnc[nH]1 [Compound 32, 2-[(2R)-2-(1H-imidazol-4-yl)-2-(2-methoxyphenyl)ethyl]pyridine] | > 500
FC(F)(F)Oc1cccc([C@@H](Cc2ccccn2)c2cnc[nH]2)c1 [Compound 36, 2-[(2R)-2-(1H-imidazol-4-yl)-2-[3-(trifluoromethoxy)phenyl]ethyl] pyridine] | 10 to 50
Cc1nc(C[C@H](c2c[nH]cn2)c2cccc(C)c2C)cs1 [Compound 103, 4-[(S)-2-(4-imidazolyl)-2-(2,3-xylyl)ethyl]-2-methyl-1,3-thiazole] | > 500
COc1cccc(C[C@H](c2c[nH]cn2)c2cccc3c2OCC3)n1 [Compound 16, 2-[(2S)-2-(2,3-dihydro-1-benzofuran-7-yl)-2-(1H-imidazol-4-yl)ethyl]-6-methoxypyridine] | < 10
COc1cccc(C[C@@H](c2cnc[nH]2)c2cccc3c2COC3)n1 [Compound 12, 2-[(2R)-2-(1,3-dihydro-2-benzofuran-4-yl)-2-(1H-imidazol-4-yl)ethyl]-6-methoxypyridine] | > 500
Cc1cccc([C@@H](Cc2ccnc(C(F)(F)F)n2)c2cnc[nH]2)c1C [Compound 73, 4-[(2R)-2-(2,3-dimethylphenyl)-2-(1H-imidazol-4-yl)ethyl]-2-(trifluoromethyl) pyrimidine] | > 500
Cc1cc(C[C@H](c2c[nH]cn2)c2cccc(C)c2C)no1 [Compound 136, 3-[(S)-2-(4-imidazolyl)-2-(2,3-xylyl)ethyl]-5-methyl-isoxazole] | < 10

Biological target: T1, human ADRA2B receptor
Assay: ADRA2B arrestin agonist assay
Format: cell-based
Details: CHO-K1 cells stably expressing human ADRA2B; read-out: Beta-Arrestin - Human Alpha2B EC50
Protocol: ADRA2A and ADRA2B Arrestin Agonist Assay Method
The arrestin assay uses frozen CHO-K1 cell lines stably expressing human ADRA2A and ADRA2B receptors. Cells are frozen following normal cell freezing protocols. Briefly, cells are washed with PBS and then dissociated with 0.25% trypsin. Dissociated cells are quenched in full media and then collected by centrifugation at 290×g for 5 minutes. […] Cells are stored at −80° C. (or in liquid N2 if stored >6 months) until the day of the assay.
On the day before the assay, frozen cells are thawed in a 37° C. water bath, brought up in 20 mL of full media, and collected via centrifugation at 290×g for 5 minutes. […] Cells are incubated overnight in a 37° C., 5% CO2 cell incubator.
On the day of the assay, agonists are diluted in Opti-MEM to 3.5x of the final assay concentration. 4 μL of agonists are added to the cells and incubated for 2 hours at 37° C. in a 5% CO2 cell incubator. 6 μL of arrestin detection reagents are dispensed onto the cells and the plates are incubated for 2 hours at room temperature. […] Plates are read on an Envision luminescence plate reader.

EC50 [nM] | SMILES
< 10 | Cc1cccc(C(Cc2ccnc(F)c2)c2c[nH]cn2)c1F (stereo not drawn) [Compound 321, 4-[2-(2-fluoro-4-pyridyl)-1-(2-fluoro-3-tolyl)ethyl]imidazole]
10 to 50 | Cc1cccc([C@H](Cc2ccnn2CF)c2c[nH]cn2)c1C [Compound 262, 5-[(S)-2-(4-imidazolyl)-2-(2,3-xylyl)ethyl]-1-(fluoromethyl)pyra-zole]
10 to 50 | COc1nccc(C[C@@H](c2c[nH]cn2)c2cccc(F)c2OC)n1 [Compound 182, 4-[(R)-2-(3-fluoro-2-methoxyphenyl)-2-(4-imidazolyl)ethyl]-2-methoxypyrimidine]
< 10 | Cc1cccc(C(Cc2ccncc2F)c2c[nH]cn2)c1C (stereo not drawn) [Compound 394, 4-[2-(3-fluoro-4-pyridyl)-1-(2,3-xylyl)ethyl]imidazole]
< 10 | COCc1nccc(CC(c2c[nH]cn2)c2cccc3c2OCC3)n1 (stereo not drawn) [Compound 306, 4-[2-(2,3-dihydro-1-benzofuran-7-yl)-2-(4-imidazolyl)ethyl]-2-(methoxymethyl)pyrimidine]
< 10 | Cc1cc(CC(c2c[nH]cn2)c2cccc(C)c2C)ccn1 (stereo not drawn) [Compound 255, 4-[2-(2-methyl-4-pyridyl)-1-(2,3-xylyl)ethyl]imidazole]
> 500 | CC(C)n1cc(C[C@@H](c2c[nH]cn2)c2cccc3c2OCC3)cn1 [Compound 297, 4-[(R)-2-(2,3-dihydro-1-benzofuran-7-yl)-2-(4-imidazolyl)ethyl] 1-isopropylpyrazole]
10 to 50 | COCc1nccc(CC(c2c[nH]cn2)c2cccc3c2OCCO3)n1 (stereo not drawn) [Compound 356, 4-[2-(2,3-dihydro-1,4-benzodioxin-5-yl)-2-(4-imidazolyl)ethyl]-2-(methoxymethyl)pyrimidine]
< 10 | COCc1cccc(CC(c2c[nH]cn2)c2cccc(C)c2C)n1 (stereo not drawn) [Compound 294, 4-{2-[6-(methoxymethyl)-2-pyridyl]-1-(2,3-xylyl)ethyl}imidazole]
> 500 | COc1c(C)cccc1[C@@H](Cc1ccnn1C)c1c[nH]cn1 [Compound 381, 5-[(R)-2-(4-imidazolyl)-2-(2-methoxy-3-tolyl)ethyl]-1-methylpyrazole]
50 to 500 | Cc1cc(CC(c2c[nH]cn2)c2cccc3ccn(C)c23)ncn1 (stereo not drawn) [Compound 165, 4-[2-(4-imidazolyl)-2-(1-methyl-7-indolyl)ethyl]-6-methylpyrimidine]
10 to 50 | Cc1cccc([C@H](Cc2ccnc(C3CC3)n2)c2c[nH]cn2)c1C [Compound 168, 4-[(S)-2-(4-imidazolyl)-2-(2,3-xylyl)ethyl]-2-cyclopropylpyrimidine]
50 to 500 | Cn1ncc2c(C(Cc3cocn3)c3c[nH]cn3)cccc21 (stereo not drawn) [Compound 378, 4-[1-(4-imidazolyl)-2-(1,3-oxazol-4-yl)ethyl]-1-methyl-1H-indazole]

More lines, now with the values behind:

SMILES | EC50 [nM]
Cc1cccc(C(Cc2ccns2)c2c[nH]cn2)c1C (stereo not drawn) [Compound 244, 5-[2-(4-imidazolyl)-2-(2,3-xylyl)ethyl]isothiazole] | < 10
Cc1nccc(CC(c2c[nH]cn2)c2cccc(C)c2Cl)n1 (stereo not drawn) [Compound 157, 4-[2-(2-chloro-3-tolyl)-2-(4-imidazolyl)ethyl]-2-methylpyrimidine] | < 10
Cc1cccc([C@H](Cc2cnco2)c2c[nH]cn2)c1F [Compound 370, 5-[(S)-2-(2-fluoro-3-tolyl)-2-(4-imidazolyl)ethyl]-1,3-oxazole] | 10 to 50

Same assay, conditions: read-out: Beta-Arrestin - Human Alpha2B EC50

SMILES | EC50 [nM]
Cc1cccc([C@H](Cc2cn[nH]c2)c2c[nH]cn2)c1C [Compound 233, 4-[(S)-2-(4-imidazolyl)-2-(2,3-xylyl)ethyl]pyrazole] | < 10
